Data taken from the NIST ThermoML archive (doi:10.1016/j.jct.2012.02.015).
± gives the expanded uncertainty stated by the source.

Conditions: 101.33 kPa, Liquid, Alternating current cell with electrodes

Row | Structure (SMILES) | electrical conductivity (1173 K) | electrical conductivity (1184 K) | electrical conductivity (1194 K) | electrical conductivity (1206 K) | electrical conductivity (1217 K) | electrical conductivity (1232 K) | electrical conductivity (1244 K) | electrical conductivity (1258 K) | electrical conductivity (1269 K) | electrical conductivity (1131 K) | electrical conductivity (1136 K) | electrical conductivity (1151 K) | electrical conductivity (1169 K) | electrical conductivity (1190 K) | electrical conductivity (1198 K) | electrical conductivity (1210 K) | electrical conductivity (1221 K) | electrical conductivity (1229 K) | electrical conductivity (1233 K) | electrical conductivity (1237 K) | further results
1 | [Br-].[Rb+] [rubidium bromide] | 151 ± 2 S/m | 152 ± 2 S/m | 153 ± 2 S/m | 154 ± 2 S/m | 154 ± 2 S/m | 155 ± 2 S/m | 156 ± 2 S/m | 157 ± 2 S/m | 157 ± 2 S/m |  |  |  |  |  |  |  |  |  |  |  | 
2 | [F-].[Li+] [lithium fluoride] | 880 ± 9 S/m | 886 ± 9 S/m | 890 ± 9 S/m | 896 ± 9 S/m | 900 ± 9 S/m | 907 ± 9 S/m | 911 ± 9 S/m | 916 ± 9 S/m | 918 ± 9 S/m | 855 ± 9 S/m | 858 ± 9 S/m | 868 ± 9 S/m | 877 ± 9 S/m | 888 ± 9 S/m | 892 ± 9 S/m | 897 ± 9 S/m | 899 ± 9 S/m | 905 ± 9 S/m | 907 ± 9 S/m | 908 ± 9 S/m | electrical conductivity (1245 K): 911 ± 9 S/m; electrical conductivity (1267 K): 918 ± 9 S/m; electrical conductivity (1283 K): 923 ± 9 S/m
3 | [I-].[K+] [potassium iodide] |  |  |  |  |  |  |  |  | 167 ± 2 S/m |  |  |  |  |  |  |  |  |  |  |  | electrical conductivity (1109 K): 158 ± 2 S/m; electrical conductivity (1126 K): 160 ± 2 S/m; electrical conductivity (1143 K): 161 ± 2 S/m; electrical conductivity (1152 K): 163 ± 2 S/m; electrical conductivity (1160 K): 164 ± 2 S/m; electrical conductivity (1170 K): 165 ± 2 S/m; electrical conductivity (1176 K): 165 ± 2 S/m; electrical conductivity (1186 K): 166 ± 2 S/m; electrical conductivity (1203 K): 166 ± 2 S/m; electrical conductivity (1225 K): 167 ± 2 S/m; electrical conductivity (1236 K): 167 ± 2 S/m; electrical conductivity (1246 K): 168 ± 2 S/m; electrical conductivity (1252 K): 167 ± 2 S/m
4 | [Br-].[K+] [potassium bromide] |  |  |  |  |  |  |  |  |  | 190 ± 2 S/m | 191 ± 2 S/m | 194 ± 2 S/m | 196 ± 2 S/m | 200 ± 2 S/m | 201 ± 2 S/m | 202 ± 2 S/m | 203 ± 2 S/m | 204 ± 2 S/m | 204 ± 2 S/m | 205 ± 2 S/m | electrical conductivity (1245 K): 205 ± 2 S/m
5 | [I-].[Rb+] [rubidium iodide (RbI)] |  |  |  |  |  |  |  |  |  |  |  |  |  |  | 127 ± 1 S/m | 128 ± 1 S/m |  |  | 130 ± 1 S/m |  | electrical conductivity (1126 K): 120 ± 1 S/m; electrical conductivity (1154 K): 122 ± 1 S/m; electrical conductivity (1166 K): 124 ± 1 S/m; electrical conductivity (1188 K): 126 ± 1 S/m; electrical conductivity (1216 K): 128 ± 1 S/m; electrical conductivity (1248 K): 132 ± 1 S/m; electrical conductivity (1260 K): 133 ± 1 S/m; electrical conductivity (1266 K): 133 ± 1 S/m; electrical conductivity (1297 K): 135 ± 1 S/m; electrical conductivity (1309 K): 136 ± 1 S/m
